Columns and labels:
Type in all cases: in vivo
Hordeum vulgare (HORVW) = assay: Pre-emergence herbicidal evaluation, winter barley; conditions: dose 0.4 kg/ha
Description: (§1) The pre-emergence herbicidal activity of the compounds of the present invention is exemplified by the following test in which the seeds of a variety of monocotyledonous and dicotyledonous plants are seperately mixed with potting soil and planted on top of approximately one inch of soil in separate pots. After planting, the pots are sprayed with the selected aqueous acetone solution containing test compound in sufficient quantity to provide the equivalent of about 0.0125 to 0.4 kg per hectare of test compound per pot. The treated pots are then placed on greenhouse benches, watered and cared for in accordance with conventional greenhouse procedures. From 2 to 4 weeks after treatment, the tests are terminated and each pot is examined and rated according to the rating system set forth below.

Lamium purpureum (LAMPU) [1] = assay: Post-emergence herbicidal evaluation, purple deadnettle; conditions: rated 2 to 4 weeks after treatment
Procedure: (§2) [table] [table] […] These acetone solutions are diluted with water and the resulting formulations applied at dosage levels equivalent of about 0.03 to 0.4 kg per hectare of test compound per pot. After spraying the plants are placed on greenhouse benches and are cared for in the usual manner, commensurate with conventional greenhouse practices. From 2 to 4 weeks after treatment, the seedling plants are examined and rated according to the rating system provided above. A rating 0 indicates growth as untreated control, a rating 9 indicates death.

[2] = test system: Abutilon theophrasti (ABUTH); assay: Post-emergence herbicidal evaluation, velvetleaf; conditions: rated 2 to 4 weeks after treatment
Procedure: as §2

Stellaria media (STEME) [3] = assay: Pre-emergence herbicidal evaluation, chickweed
Description: as §1

Galium aparine (GALAP) [4] = assay: Pre-emergence herbicidal evaluation, cleaver
Description: as §1

Stellaria media (STEME) [5] = assay: Post-emergence herbicidal evaluation, chickweed; conditions: rated 2 to 4 weeks after treatment
Procedure: as §2

[6] = test system: Matricaria inodora (MATIN); assay: Post-emergence herbicidal evaluation, mayweed; conditions: rated 2 to 4 weeks after treatment
Procedure: as §2

[7] = test system: Matricaria inodora (MATIN); assay: Pre-emergence herbicidal evaluation, mayweed
Description: as §1

Lamium purpureum (LAMPU) [8] = assay: Pre-emergence herbicidal evaluation, purple deadnettle
Description: as §1

[9] = test system: Abutilon theophrasti (ABUTH); assay: Pre-emergence herbicidal evaluation, velvetleaf
Description: as §1

[10] = test system: Triticum aestivum (TRZAW); assay: Pre-emergence herbicidal evaluation, winter wheat
Description: as §1

Setaria viridis (SETVI) [11] = assay: Post-emergence herbicidal evaluation, green foxtail; conditions: for SETVI rating: rated 2 to 4 weeks after treatment
Procedure: as §2

Galium aparine (GALAP) [12] = assay: Post-emergence herbicidal evaluation, cleaver; conditions: rated 2 to 4 weeks after treatment
Procedure: as §2

weeds = assay: Post-emergence herbicidal evaluation, overall weed control; conditions: in barley at crop selective doses
Procedure: as §2

Oryza sativum (ORYSA) = assay: Post-emergence herbicidal evaluation, rice; conditions: rated 2 to 4 weeks after treatment
Procedure: as §2

[13] = test system: Alopecurus myosuroides (ALOMY); assay: Post-emergence herbicidal evaluation, black grass; conditions: rated 2 to 4 weeks after treatment
Procedure: as §2

Setaria viridis (SETVI) [14] = assay: Pre-emergence herbicidal evaluation, green foxtail
Description: as §1

Solanum nigrum (SOLNI) = assay: Post-emergence herbicidal evaluation, black nightshade; conditions: rated 2 to 4 weeks after treatment
Procedure: as §2

[15] = test system: Digitaria sanguinalis (DIGSA); assay: Post-emergence herbicidal evaluation, large crabgrass; conditions: rated 2 to 4 weeks after treatment
Procedure: as §2

In the case of Cc1cc(OCC(F)(F)C(F)(F)F)nc(Oc2cc(C(F)(F)F)nn2C)c1 [Example 7], the HORVW rating (Hordeum vulgare (HORVW)) is reported as 3 (3 - Moderate effect), the LAMPU rating (Lamium purpureum (LAMPU) [1]; dose 0.03 kg/ha) is reported as 0 (0 - No effect) and the LAMPU rating (Lamium purpureum (LAMPU) [1]; dose 0.1 kg/ha) is reported as 2 (2 - Slight effect). The LAMPU rating (Lamium purpureum (LAMPU) [1]; dose 0.4 kg/ha) was 6 (6 - Herbicidal effect), the ABUTH rating ([2]; dose 0.03 kg/ha) was 2 (2 - Slight effect) and the ABUTH rating ([2]; dose 0.4 kg/ha) was 2 (2 - Slight effect). The STEME rating (Stellaria media (STEME) [3]; dose 0.025 kg/ha) was 5 (5 - Definite injury), the STEME rating (Stellaria media (STEME) [3]; dose 0.1 kg/ha) was 7 (7 - Good herbicidal effect) and the STEME rating (Stellaria media (STEME) [3]; dose 0.4 kg/ha) was 8 (8 - Approaching complete kill). For the same molecule, the GALAP rating (Galium aparine (GALAP) [4]; dose 0.013 kg/ha) was 0 (0 - No effect), the GALAP rating (Galium aparine (GALAP) [4]; dose 0.025 kg/ha) was 0 (0 - No effect) and the GALAP rating (Galium aparine (GALAP) [4]; dose 0.1 kg/ha) was 1 (1 - Trace effect). The GALAP rating (Galium aparine (GALAP) [4]; dose 0.4 kg/ha) was 2 (2 - Slight effect), the STEME rating (Stellaria media (STEME) [5]; dose 0.03 kg/ha) was 2 (2 - Slight effect) and the STEME rating (Stellaria media (STEME) [5]; dose 0.1 kg/ha) was 5 (5 - Definite injury). For the same molecule, the STEME rating (Stellaria media (STEME) [5]; dose 0.4 kg/ha) was 5 (5 - Definite injury), the MATIN rating ([6]; dose 0.03 kg/ha) was 2 (2 - Slight effect) and the MATIN rating ([6]; dose 0.1 kg/ha) was 7 (7 - Good herbicidal effect). The MATIN rating ([6]; dose 0.4 kg/ha) was 8 (8 - Approaching complete kill), the MATIN rating ([7]; dose 0.013 kg/ha) was 0 (0 - No effect) and the MATIN rating ([7]; dose 0.025 kg/ha) was 3 (3 - Moderate effect). The MATIN rating ([7]; dose 0.1 kg/ha) was 8 (8 - Approaching complete kill), the MATIN rating ([7]; dose 0.4 kg/ha) was 9 (9 - Complete kill) and the LAMPU rating (Lamium purpureum (LAMPU) [8]; dose 0.025 kg/ha) was 6 (6 - Herbicidal effect). For the same molecule, the LAMPU rating (Lamium purpureum (LAMPU) [8]; dose 0.1 kg/ha) was 8 (8 - Approaching complete kill), the LAMPU rating (Lamium purpureum (LAMPU) [8]; dose 0.4 kg/ha) was 9 (9 - Complete kill) and the ABUTH rating ([9]; dose 0.025 kg/ha) was 0 (0 - No effect). For the same molecule, the ABUTH rating ([9]; dose 0.1 kg/ha) was 1 (1 - Trace effect), the ABUTH rating ([9]; dose 0.4 kg/ha) was 7 (7 - Good herbicidal effect) and the TRZAW rating ([10]; dose 0.013 kg/ha) was 0 (0 - No effect). For the same molecule, the TRZAW rating ([10]; dose 0.025 kg/ha) was 0 (0 - No effect), the TRZAW rating ([10]; dose 0.1 kg/ha) was 1 (1 - Trace effect) and the TRZAW rating ([10]; dose 0.4 kg/ha) was 2 (2 - Slight effect). The SETVI rating (Setaria viridis (SETVI) [11]; dose 0.03 kg/ha) was 2 (2 - Slight effect), the SETVI rating (Setaria viridis (SETVI) [11]; dose 0.1 kg/ha) was 4 (4 - Injury) and the SETVI rating (Setaria viridis (SETVI) [11]; dose 0.4 kg/ha) was 8 (8 - Approaching complete kill). For the same molecule, the “grass control such as Setaria virides” value (Setaria viridis (SETVI) [11]; in barley at crop selective doses) was “effective”, the GALAP rating (Galium aparine (GALAP) [12]; dose 0.03 kg/ha) was 3 (3 - Moderate effect) and the GALAP rating (Galium aparine (GALAP) [12]; dose 0.1 kg/ha) was 5 (5 - Definite injury). For the same molecule, the GALAP rating (Galium aparine (GALAP) [12]; dose 0.4 kg/ha) was 5 (5 - Definite injury), the broad-leaved weed control (weeds) was “effective” and the ORYSA rating (Oryza sativum (ORYSA); dose 0.03 kg/ha) was 3 (3 - Moderate effect). For the same molecule, the ORYSA rating (Oryza sativum (ORYSA); dose 0.1 kg/ha) was 3 (3 - Moderate effect), the ORYSA rating (Oryza sativum (ORYSA); dose 0.4 kg/ha) was 3 (3 - Moderate effect) and the ALOMY rating ([13]; dose 0.03 kg/ha) was 2 (2 - Slight effect). The ALOMY rating ([13]; dose 0.1 kg/ha) was 4 (4 - Injury), the ALOMY rating ([13]; dose 0.4 kg/ha) was 5 (5 - Definite injury) and the SETVI rating (Setaria viridis (SETVI) [14]; dose 0.013 kg/ha) was 2 (2 - Slight effect). For the same molecule, the SETVI rating (Setaria viridis (SETVI) [14]; dose 0.025 kg/ha) was 2 (2 - Slight effect), the SETVI rating (Setaria viridis (SETVI) [14]; dose 0.1 kg/ha) was 5 (5 - Definite injury) and the SETVI rating (Setaria viridis (SETVI) [14]; dose 0.4 kg/ha) was 8 (8 - Approaching complete kill). For the same molecule, the SOLNI rating (Solanum nigrum (SOLNI); dose 0.03 kg/ha) was 0 (0 - No effect), the SOLNI rating (Solanum nigrum (SOLNI); dose 0.1 kg/ha) was 0 (0 - No effect) and the SOLNI rating (Solanum nigrum (SOLNI); dose 0.4 kg/ha) was 0 (0 - No effect). The DIGSA rating ([15]; dose 0.03 kg/ha) was 2 (2 - Slight effect), the DIGSA rating ([15]; dose 0.1 kg/ha) was 9 (9 - Complete kill) and the DIGSA rating ([15]; dose 0.4 kg/ha) was 9 (9 - Complete kill).
